Results reported in US9566247B2, “Nanoparticles for controlled release of anti-biofilm agents and methods of use” (priority 2013, dated 2017).

Key:
[1] = system: Streptococcus mutants (S. mutans); conditions: cited from earlier work
[2] = system: Biofilms of S. mutans UA159; assay: Antibiofilm activity, CFU per dry weight of biofilms on sHA discs; assay type: cell-based, Streptococcus mutans; conditions: equivalent dose of free farnesol (15% EtOH) or free NPC
Description: Biofilms of S. mutans UA159 were formed on saliva coated hydroxyapatite (sHA) surfaces (12.7 mm in diameter, 1 mm in thickness, Clarkson Chromatography Products Inc., South Williamsport, Pa.) as detailed elsewhere (Koo et al., 2010, J Bacteriol, 192(12):3024-32). The HA discs were placed vertically using a custom-made holder and grown in UFTYE (pH 7.0) with 1% sucrose at 37° C. and 5% CO2. Disks were pretreated with the above-described solutions for 10 min, washed twice with sterile saline, and transferred back to culture media. The first treatment was applied directly after salivary pellicle formation (sHA) then treated disks were transferred to culture media containing S. mutans (10^5 CFU/ml). Biofilms were allowed to form on the discs without interruption for 6 hours at which point a second treatment was applied. The next day, biofilms were treated every 6 hours for a total of 3 treatments and the culture media was changed twice. After 48 hours, the amount of colony forming units (CFU) per dry-weight of biofilms was assessed. Briefly, the biofilms were removed and homogenized, then plated onto blood agar plates, and after incubation at 37° C., 5% CO2, the CFUs were counted as described previously (Koo et al., 2003, J Antimicrob Chemother, 52(5):782-9).

## CC(C)=CCCC(C)=CCCC(C)=CCO [farnesol]
[1]
  MIC: < 0.028 mg/mL
[2]
  effect on CFU relative to PBS: no effect on CFU
